In patent US20250230477A1, “A PROCESS FOR THE PREPARATION OF TETRAHYDROANTHRACENES FROM STREPTOMYCES SPP. AND ANTICANCER ACTIVITY THEREOF” (Council of Scientific and Industrial Research, priority 2021, published 2025):

Columns and labels:
Bacillus cereus = assay: MIC, microtiter broth dilution; format: cell-based; settings: dilutions 2-500 μg/ml, overnight 37° C.
Experimental: (§1) The minimum inhibitory concentrations (MIC) of purified compound showing significant zones of inhibition in the preliminary antimicrobial assay using agar well diffusion method were evaluated. MIC assay was carried out by a microtiter broth dilution method with some modifications. Stock solution of each pathogen was prepared in normal saline solution i.e. 0.85% NaCl (w/v) at a concentration of 10^8 cells/ml and finally diluted with respective growth media to give approximately 10^5 CFU/ml for all organisms. Different dilutions of compound was prepared (2-500 μg/ml) by serial dilutions. 100 μl of each concentration (2-500 μg/ml) of the compound was loaded onto each well and was mixed with 100 μl of diluted pathogens containing 10^5 CFU/ml. […] The microtitre plates were then incubated overnight at 37° C. for bacterial pathogens and 28° C. for fungal pathogens and were analysed after incubation.

Bacillus subtilis = assay: MIC, microtiter broth dilution; format: cell-based; settings: dilutions 2-500 μg/ml, overnight 37° C.
Experimental: as §1

Micrococcus luteus = assay: MIC, microtiter broth dilution; format: cell-based; settings: dilutions 2-500 μg/ml, overnight 37° C.
Experimental: as §1

Staphylococcus aureus = assay: MIC, microtiter broth dilution; format: cell-based; settings: dilutions 2-500 μg/ml, overnight 37° C.
Experimental: as §1

MTT cytotoxicity = format: cell-based; settings: human, FR2 cells, 100 μM concentration range
Experimental: (§2) 5×10^3 cells were seeded/well in a 96 well plate and treated with Compounds (1-3) for 48 hours with 100 μM concentration range to a panel of cancer cell lines. After 44 hour MTT with final concentration of 0.5 mg/ml were added to cells and incubated for 4 hour at 37° C. until formazon crystals are formed. MTT was removed and formazon crystals were lysed by DMSO for 30 minutes at 37° C., the absorbance was measured at 570 nm and the IC50 values were calculated using graph pad prism.

A549 = assay: MTT cytotoxicity; format: cell-based; settings: Homo sapiens, 48 hours, 100 μM concentration range
Experimental: as §2

HCT-116 [1] = assay: MTT cytotoxicity; format: cell-based; settings: Homo sapiens; HCT-116, MTT, 48 hours, 100 μM concentration range
Experimental: as §2

HT-29 [2] = assay: MTT cytotoxicity; format: cell-based; settings: Homo sapiens; HT-29, MTT, 48 hours, 100 μM concentration range
Experimental: as §2

MCF-7 [3] = assay: MTT cytotoxicity; format: cell-based; settings: Homo sapiens, MCF7; MCF-7, MTT, 48 hours, 100 μM concentration range
Experimental: as §2

MDA-MB-231 = assay: MTT cytotoxicity; format: cell-based; settings: Homo sapiens; MDA-MB-231, MTT, 48 hours, 100 μM concentration range
Experimental: as §2

MiaPaca-2 [4] = assay: MTT cytotoxicity; format: cell-based; settings: Homo sapiens, MIA PaCa-2; MiaPaca-2, MTT, 48 hours, 100 μM concentration range
Experimental: as §2

PC3 = assay: MTT cytotoxicity; format: cell-based; settings: Homo sapiens, PC-3, 48 hours, 100 μM concentration range
Experimental: as §2

Panc-1 = assay: MTT cytotoxicity; format: cell-based; settings: Homo sapiens; Panc-1, MTT, 48 hours, 100 μM concentration range
Experimental: as §2

HCT-116 [5] = assay: Colony formation assay; format: cell-based; settings: HCT-116, concentrations nearby the IC50, 5 days
Experimental: (§3) Colony formation assay was performed to further certify the antiproliferative properties of setomimycin in four different cancer cell lines viz. HT-29, MiaPaca-2, HCT-116 and MCF-7. Cells were seeded onto 6 well plates at seeding density 1×10^3 fells/well and treated with increasing concentration of setomimycin nearby the IC50 values for 5 days. Upon termination the cells were stained with 0.1% crystal violet for 20-30 minutes and washed with dH2O thoroughly. The images were taken from plates with NIKON camera (D3100). Average colonies (n=3) were quantified from different fields. Bar graphs represent the number of colonies (n=3, error bars indicate ±SD).

HT-29 [6] = assay: Colony formation assay; format: cell-based; settings: HT-29, concentrations nearby the IC50, 5 days
Experimental: as §3

MCF-7 [7] = assay: Colony formation assay; format: cell-based; settings: MCF-7, concentrations nearby the IC50, 5 days
Experimental: as §3

MiaPaca-2 [8] = assay: Colony formation assay; format: cell-based, human; settings: MiaPaca-2, concentrations nearby the IC50, 5 days
Experimental: as §3

HCT-116 [9] = assay: Transwell invasion assay; format: cell-based; settings: HCT-116, 48 hours, increasing concentration
Experimental: (§4) The above results depict significant antiproliferative effects of setomimycin in different cell lines near IC50 values. Transwell invasion assay was performed to check the anti-invasive properties of setomimycin. […] (A-B) 1.2×10^6 HCT-116 and MCF-7 cells were seeded in the upper chamber of inserts in serum free medium and treated with indicated concentration of setomimycin for 48 hours. (After 48 hours the invaded cells from lower insert were fixed with ice cold methanol and stained with 0.1% crystal violet for 20-30 minutes. After staining the inserts were washed with dH2O thoroughly and cells from three different fields in each treated condition were counted and photographed under an inverted microscope (20× magnifications). (C-D) Bar graph representing the number of invaded cells (n=3, error bars indicate ±SD).

MCF-7 [10] = assay: Transwell invasion assay; format: cell-based; settings: MCF-7, 48 hours, increasing concentration
Experimental: as §4

HCT-116 [11] = assay: Scratch assay (migration); format: cell-based; settings: HCT-116, concentrations within the range of IC50
Experimental: (§5) Scratch assay was performed in the panel of cancer cell lines with varying degree of invasive and migratory capabilities as shown in FIG. 4. Our results unveiled that setomimycin inhibited the migratory potential of all the cell lines treated with different concentration of setomimycin within the range of their IC50 values. […] 5×10^5 cells were seeded onto 6 well plate and grown upto more than 90% confluency. After the proper attachment of cells wounds were created with the help of a 20-200 μL sterile pipette tip. Subsequently the cells were treated with indicated concentration of setomimycin and vehicle (DMSO). The images were taken under inverted microscope at 20× magnification.

HT-29 [12] = assay: Scratch assay (migration); format: cell-based; settings: HT-29, concentrations within the range of IC50
Experimental: as §5

MCF-7 [13] = assay: Scratch assay (migration); format: cell-based; settings: MCF-7, concentrations within the range of IC50
Experimental: as §5

MiaPaca-2 [14] = assay: Scratch assay (migration); format: cell-based, human; settings: MiaPaca-2, concentrations within the range of IC50
Experimental: as §5

BCL-2 = assay: Western blotting; format: cell-based; settings: HCT-116 and MCF-7 cells, 48 h
Experimental: (§6) FIG. 5 Illustrates effect of setomimycin (Compound-3) pro-proliferative and anti-apoptotic protein targets in cancer cells: (A-B) Immunoblot analysis of ERK, p-MEK, Par-4, BCL-2 and β-actin in HCT-116 and MCF-7 cells treated with setomimycin for 48 h. (C-D) Densitometry analysis showing relative protein expression for the western blots presented Strong active potential of setomimycin against tumor cell proliferation and migration at nearby concentration of IC50 values was depicted by MTT data. Further, molecular docking studies predicted the strong affinity of setomimycin targeting MEK pathway. ERK and MEK are the major signaling pathways regulating cancer cell proliferation, differentiation and apoptosis. Therefore, Western blotting was carried out to check the effects of Setomimycin on ERK and MEK proteins.

ERK = assay: Western blotting; format: cell-based; settings: HCT-116 and MCF-7 cells, 48 h
Experimental: as §6

Par-4 = assay: Western blotting; format: cell-based; settings: HCT-116 and MCF-7 cells, 48 h
Experimental: as §6

Phospho MEK = assay: Western blotting; format: cell-based; settings: HCT-116 and MCF-7 cells, 48 h, increasing concentration
Experimental: as §6

[15] = test system: Gram positive bacteria i.e. S. aureus, B. subtilis, B. cereus, and M. smegmatis; settings: literature 1978; cited from earlier work
Sarcoma-180 = Sarcoma-180 mouse solid tumor model, 200 mg/kg per day for seven days; cited from earlier work

Row | SMILES | Minimum Inhibitory Concentration (Bacillus cereus) | Minimum Inhibitory Concentration (Bacillus subtilis) | Minimum Inhibitory Concentration (Micrococcus luteus) | Minimum Inhibitory Concentration (Staphylococcus aureus) | IC50 at 48 h (MTT cytotoxicity) [µM] | IC50 (A549) [µM] | IC50 (HCT-116 [1]) [µM] | IC50 (HT-29 [2]) [µM] | IC50 (MCF-7 [3]) [µM] | IC50 (MDA-MB-231) [µM] | IC50 (MiaPaca-2 [4]) [µM] | IC50 (PC3) [µM] | IC50 (Panc-1) [µM] | also measured
1 | CC(=O)[C@H]1c2cc3cccc(O)c3c(O)c2C(=O)C[C@]1(C)O [Compound-1] | 12 | 12 | 6 | 25 | 48.7 | 38.9 | 10.4 | 8.64 | 9.56 | 13.6 | 12.7 | 14.7 | 15.6 | 
2 | CC(=O)[C@H]1c2c(c(O)c3c(O)cccc3c2-c2c3c(c(O)c4c(O)cccc24)C(=O)C[C@](C)(O)[C@H]3C(C)=O)C(=O)C[C@]1(C)O [Compound-2] | 6 | 6 | 4 | 12 | 62.3 | 38.7 | 18.9 | 15.5 | 11.2 | 12.5 | 8.31 | 17.5 | 21.3 | 
3 | CC(=O)[C@@H]1C(C)=CC(=O)c2c1c(-c1c3c(c(O)c4c(O)cccc14)C(=O)C[C@](C)(O)[C@H]3C(C)=O)c1cccc(O)c1c2O [Compound-3, Setomimycin] | 4 | 16 | 8 | 8 | 53.3 | 11.5 | 5.3 | 4.2 | 6.9 | 7.5 | 4.57 | 7.02 | 48 | Antiproliferative effect, colony formation (HCT-116 [5]): promising results near the IC50 values; Antiproliferative effect, colony formation (HT-29 [6]): promising results near the IC50 values; Antiproliferative effect, colony formation (MCF-7 [7]): promising results near the IC50 values; Antiproliferative effect, colony formation (MiaPaca-2 [8]): promising results near the IC50 values; Invasion of cells, transwell (HCT-116 [9]): significantly inhibited; Invasion of cells, transwell (MCF-7 [10]): significantly inhibited; Cell migration, scratch assay (HCT-116 [11]): inhibited the cell migration; Cell migration, scratch assay (HT-29 [12]): inhibited the cell migration; Cell migration, scratch assay (MCF-7 [13]): inhibited the cell migration; Cell migration, scratch assay (MiaPaca-2 [14]): inhibited the cell migration; BCL-2 (antiapoptotic protein) expression, Western blot (BCL-2): downregulated; ERK protein expression, Western blot (ERK): downregulation; Par-4 (pro-apoptotic protein) expression, Western blot (Par-4): upregulated; Phospho MEK expression, Western blot (Phospho MEK): down regulated; Activity against Gram positive bacteria [15]: active; Tumor growth (Sarcoma-180): reduce tumor growth
